From US10899710B2, “Pyridines and their use in the treatment of cancer” (The United States of America, as represented by the …, priority 2015, dated 2021)
Where a name gives a salt, the structure may show the parent alone. Read-outs that look alike come from different tables or passages of the source.

Assays:
[1] = target: T1, gluthathione reductase (GR) (Homo sapiens, UniProt P00390); test: Inhibition of recombinant GR (GSSG assay); assay type: biochemical
T1 sequence (P00390 44-522): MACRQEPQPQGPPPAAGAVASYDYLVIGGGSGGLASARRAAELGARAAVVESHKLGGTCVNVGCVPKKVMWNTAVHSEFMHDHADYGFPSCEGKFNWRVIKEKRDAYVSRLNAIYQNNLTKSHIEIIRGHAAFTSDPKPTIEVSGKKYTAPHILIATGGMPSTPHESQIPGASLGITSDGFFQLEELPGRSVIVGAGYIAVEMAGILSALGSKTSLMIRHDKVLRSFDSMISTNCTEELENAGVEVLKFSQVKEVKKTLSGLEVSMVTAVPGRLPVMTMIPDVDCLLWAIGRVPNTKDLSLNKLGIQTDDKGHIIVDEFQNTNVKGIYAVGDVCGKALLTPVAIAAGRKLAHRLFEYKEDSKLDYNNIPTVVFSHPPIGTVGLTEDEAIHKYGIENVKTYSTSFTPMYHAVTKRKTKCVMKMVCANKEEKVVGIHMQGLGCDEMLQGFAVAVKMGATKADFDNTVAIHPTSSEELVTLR
Description: (§1) Small molecule inhibition of recombinant thioredoxin reductase 1 (TrxR1) and gluthathione reductase (GR) was examined in 96-well plate format. 15 nM TrxR1 was incubated in the presence of 250 μM NADPH, 0.1 mg/ml BSA, and various concentrations of the compound of Example 1 (1% DMSO final) in 50 mM Tris (pH 7.5) and 2 mM EDTA buffer for 15 minutes. Following the incubation period, 2.5 mM DTNB was added to each well and the change in O.D. at 412 nm was followed. Percent activity was determined using DMSO vehicle and no TrxR1 (blank) controls. 2 nM GR was incubated in the presence of 250 μM NADPH, 0.1 mg/ml BSA, and various concentrations of compounds (1% DMSO final) in 50 mM Tris (pH 7.5) and 2 mM EDTA buffer for 15 minutes. Following the incubation period, 1 mM GSSG was added to each well and the change in O.D. at 340 nm was followed. Percent activity was determined using DMSO vehicle and no GR (blank) controls.

[2] = target: T2, recombinant thioredoxin reductase 1 (TrxR1) (Homo sapiens, UniProt Q16881); test: Inhibition of recombinant TrxR1 (DTNB assay); assay type: biochemical; settings: read-out: TrxR inhibition (IC50)
T2 sequence (Q16881 151-649 limits assumed): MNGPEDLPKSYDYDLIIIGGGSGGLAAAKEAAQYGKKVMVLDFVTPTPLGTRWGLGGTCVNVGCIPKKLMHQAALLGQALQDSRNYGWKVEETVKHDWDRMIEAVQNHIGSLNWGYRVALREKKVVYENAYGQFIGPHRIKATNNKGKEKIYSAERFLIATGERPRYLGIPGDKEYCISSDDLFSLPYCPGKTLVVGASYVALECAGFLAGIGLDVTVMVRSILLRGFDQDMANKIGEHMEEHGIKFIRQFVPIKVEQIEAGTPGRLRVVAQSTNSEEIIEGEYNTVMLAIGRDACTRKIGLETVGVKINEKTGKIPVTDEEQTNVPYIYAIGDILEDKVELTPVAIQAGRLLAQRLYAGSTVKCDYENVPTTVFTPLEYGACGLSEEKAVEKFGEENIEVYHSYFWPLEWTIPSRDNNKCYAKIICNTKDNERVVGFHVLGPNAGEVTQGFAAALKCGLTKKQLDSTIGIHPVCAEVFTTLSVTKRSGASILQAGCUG
Description: as §1

FaDu cell line = test: Cell viability inhibition, FaDu cell line; assay type: cell-based; settings: Homo sapiens, Biological Example 4, 72 hrs
Description: Cell lines were plated 2000 cells/well in 96-well black optical plates in the presence of 10% FBS media containing 25 nM selenite. The following day cells were treated with various concentrations of the compound of Example 1 (0.1% DMSO final) and incubated for 72 hrs. After the incubation Cell-Quanti Blue reagent was added to each well and incubated for additional 3 hrs. Fluorescence was read ex:530 nm/em:590 nm, and percent of viability was determined using DMSO vehicle and no cell (blank) controls.
Using the assays described in Biological Example 1 to assess inhibition of recombinant TrxR1 and GR, the following IC50 values were obtained for the examples described herein. Further, following the protocol described in Biological Example 2, the following IC50 values were obtained for inhibition of cell viability using the FaDu cell line.

[3] = Biological Example 1, 2 nM GR, 15 minutes incubation
[4] = Biological Example 1, 15 nM TrxR1, 15 minutes incubation

Row | SMILES | IC50 ([1]; Biological Example 4) | IC50 ([2]; Biological Example 4) | IC50 [1, 3] | IC50 [2, 4] | IC50 (FaDu cell line)
1 | O=[N+]([O-])c1cccnc1S(=O)(=O)c1ccccc1 [Example 2, 3-Nitro-2-(phenylsulphonyl)pyridine Trifluoroacetate] | > 100 µM | 0.289 µM | > 100 µM | 0.155 µM | 1.42 µM
2 | Cc1ccc(S(=O)(=O)c2ncccc2[N+](=O)[O-])cc1 [Example 3, 3-Nitro-2-tosylpyridine Hydrochloride] | > 100 µM | 0.221 µM | > 100 µM | 0.282 µM | 2.55 µM
3 | COc1ccc([N+](=O)[O-])c(S(=O)(=O)c2ccccc2)n1 [Example 4, 6-Methoxy-3-nitro-2-(phenylsulphonyl)pyridine Trifluoroacetate] | 30.8 µM | 0.024 µM | 25.2 µM | 0.024 µM | 3.26 µM
4 | O=[N+]([O-])c1cccnc1S(=O)(=O)c1ccc(Cl)cc1 [Example 5, 2-((4-Chlorophenyl)sulphonyl)-3-nitropyridine Trifluoroacetate] | 93 µM | 0.151 µM | 47.9 µM | 0.098 µM | 1.84 µM
5 | COc1ccc([N+](=O)[O-])c(S(=O)(=O)c2ccc(C)cc2)n1 [Example 6, 6-Methoxy-3-nitro-2-tosylpyridine] | > 100 µM | 0.103 µM |  |  | 1.38 µM
6 | COc1ccc(S(=O)(=O)c2nc(OC)ccc2[N+](=O)[O-])cc1 [Example 7, 6-Methoxy-2-((4-methoxyphenyl)sulfonyl)-3-nitropyridine] | > 100 µM | 0.228 µM |  |  | 2.75 µM
7 | O=[N+]([O-])c1ccc(Cl)nc1S(=O)(=O)c1ccc(Cl)cc1 [Example 8, 6-Chloro-2-((4-chlorophenyl)sulfonyl)-3-nitropyridine] | 3.57 µM | 0.016 µM |  |  | 0.84 µM
8 | COc1ccc(S(=O)(=O)c2nc(Cl)ccc2[N+](=O)[O-])cc1 [Example 9, 6-Chloro-2-((4-methoxyphenyl)sulfonyl)-3-nitropyridine] | 41.7 µM | 0.07 µM |  |  | 0.51 µM
9 | O=[N+]([O-])c1ccc(Cl)nc1S(=O)(=O)c1ccccc1 [Example 10, 6-Chloro-3-nitro-2-(phenylsulfonyl)pyridine] | 14.5 µM | 0.056 µM |  |  | 0.25 µM

Now from value to molecule, other results behind:

Row | IC50 ([1]; Biological Example 4) | IC50 ([2]; Biological Example 4) | SMILES | IC50 [1, 3] | IC50 [2, 4] | IC50 (FaDu cell line)
10 | 23.7 µM | 0.04 µM | Cc1ccc(S(=O)(=O)c2nc(Cl)ccc2[N+](=O)[O-])cc1 [Example 11, 6-Chloro-3-nitro-2-tosylpyridine] |  |  | 0.39 µM
11 | > 100 µM | 0.513 µM | COc1ccc(S(=O)(=O)c2nc(N(C)C)ccc2[N+](=O)[O-])cc1 [Example 12, 6-((4-Methoxyphenyl)sulfonyl)-N,N-dimethyl-5-nitropyridin-2-amine] |  |  | 7.89 µM
12 | > 100 µM | 0.176 µM | CN(C)c1ccc([N+](=O)[O-])c(S(=O)(=O)c2ccc(Cl)cc2)n1 [Example 13, 6-((4-Chlorophenyl)sulfonyl)-N,N-dimethyl-5-nitropyridin-2-amine] |  |  | 12.9 µM
13 | > 100 µM | 0.345 µM | CN(C)c1ccc([N+](=O)[O-])c(S(=O)(=O)c2ccccc2)n1 [Example 14, N,N-dimethyl-5-nitro-6-(phenylsulfonyl)pyridin-2-amine] |  |  | 5.32 µM
14 | > 100 µM | 0.438 µM | Cc1ccc(S(=O)(=O)c2nc(N(C)C)ccc2[N+](=O)[O-])cc1 [Example 15, N,N-dimethyl-5-nitro-6-tosylpyridin-2-amine] |  |  | 5.91 µM
